Measured values from patent publication US7879858B2, “Substituted tetrahydropyrrolopyrazine compounds and the use thereof in pharmaceutical compositions” (Gruenenthal GmbH, priority 2006, dated 2011).

Key:
Serotonin reuptake = molecular target: T1, Serotonin reuptake (Rattus norvegicus, UniProt P31652); experiment: Inhibition of 5HT (serotonin) uptake in rat brain synaptosomes; format: biochemical; conditions: synaptosomes from rat brain; for inhibition at 10 µM: 10 μmol
T1 construct: synaptosomes are freshly isolated from areas of the rat brain; from tissue; host or cells: rat brain synaptosomes (P2 fraction)

NA reuptake = experiment: Inhibition of NA (noradrenaline) uptake in rat hypothalamus synaptosomes; format: biochemical; conditions: synaptosomes from hypothalamus of male rat brains

T1 sequence (P31652 whole entry): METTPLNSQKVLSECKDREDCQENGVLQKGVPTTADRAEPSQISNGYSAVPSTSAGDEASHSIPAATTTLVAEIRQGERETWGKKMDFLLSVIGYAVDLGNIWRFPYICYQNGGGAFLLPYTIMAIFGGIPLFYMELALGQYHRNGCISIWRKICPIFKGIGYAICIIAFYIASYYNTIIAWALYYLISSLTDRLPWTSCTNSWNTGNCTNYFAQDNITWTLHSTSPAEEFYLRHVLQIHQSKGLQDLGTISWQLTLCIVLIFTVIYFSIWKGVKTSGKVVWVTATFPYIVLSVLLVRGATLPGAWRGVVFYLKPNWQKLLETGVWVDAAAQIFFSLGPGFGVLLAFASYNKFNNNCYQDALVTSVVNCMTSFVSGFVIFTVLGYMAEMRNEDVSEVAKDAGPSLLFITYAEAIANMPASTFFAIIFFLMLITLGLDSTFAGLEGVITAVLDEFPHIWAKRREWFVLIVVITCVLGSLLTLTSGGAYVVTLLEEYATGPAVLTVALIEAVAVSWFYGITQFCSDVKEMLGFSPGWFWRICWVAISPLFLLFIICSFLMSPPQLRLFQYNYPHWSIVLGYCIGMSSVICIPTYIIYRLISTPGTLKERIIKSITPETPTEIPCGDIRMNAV

SMILES | inhibition at 10 µM (Serotonin reuptake) [%] | Serotonin reuptake % inhibition [10 μmol] (Serotonin reuptake) [%] | NA reuptake % inhibition [10 μmol] (NA reuptake) [%]
Cc1cccc(C2c3cccn3CCN2C(=O)CC(C)C)c1 (centres unmarked) [Example 15, 3-methyl-1-(1-m-tolyl-3,4-dihydropyrrolo[1,2-a]pyrazin-2(1H)-yl)butan-1-one] | 28 | – | 19
COc1ccccc1C(=O)N1CCn2cccc2C1c1cccc(Cl)c1 (centres unmarked) [Example 39, (1-(3-chlorophenyl)-3,4-dihydropyrrolo[1,2-a]pyrazin-2-(1H)-yl)(2-methoxyphenyl)methanone] | – | 46 | 43
O=C(c1cccs1)N1CCn2cccc2C1c1ccc2c(c1)OCCO2 (centres unmarked) [Example 36, [1-(2,3-dihydro-benzo[1,4]dioxin-6-yl)-3,4-dihydro-1H-pyrrolo[1,2-a]pyrazin-2-yl]-thiophen-2-yl-methanone] | 59 | – | 41
Cc1ccccc1C(=O)N1CCn2cccc2C1c1ccc2c(c1)OCCO2 (centres unmarked) [Example 34, [1-(2,3-dihydro-benzo[1,4]dioxin-6-yl)-3,4-dihydro-1H-pyrrolo[1,2-a]pyrazin-2-yl]-o-tolyl-methanone] | 52 | – | 22

More lines, main results first:

inhibition at 10 µM (Serotonin reuptake) [%] | Serotonin reuptake % inhibition [10 μmol] (Serotonin reuptake) [%] | SMILES | NA reuptake % inhibition [10 μmol] (NA reuptake) [%]
41 | – | Cc1ccccc1C(=O)N1CCn2cccc2C1c1ccc(N(C)C)cc1 (centres unmarked) [Example 50, (1-(4-(dimethylamino)phenyl)-3,4-dihydropyrrolo[1,2-a]pyrazin-2(1H)-yl)(o-tolyl)methanone] | 14
43 | – | O=C(C1CCC1)N1CCn2cccc2C1c1ccc(Cl)c(Cl)c1 (centres unmarked) [Example 66, cyclobutyl(1-(3,4-dichlorophenyl)-3,4-dihydropyrrolo[1,2-a]pyrazin-2(1H)-yl)methanone] | 32
44 | – | Cc1ccccc1C(=O)N1CCn2cccc2C1c1cccs1 (centres unmarked) [Example 57, (1-(thiophen-2-yl)-3,4-dihydropyrrolo[1,2-a]pyrazin-2(1H)-yl)(o-tolyl)methanone] | 15
